Where two headings read alike, the source gives them in different places.
Assays:
Assay type in all cases: cell-based
[1] = system: Pseudocercoporella herpotrichoides; assay: Plate medium fungicidal assay, wheat eye spot P.h (Experimental Example 5)
Procedure: (§1) In this Experimental Example, the fungicidal effects of the inventive compounds on various phytopathogenic fungi for plants and hazardous microorganism for industrial materials were examined by the methods described below. Each inventive compound was dissolved in 2 ml of dimethyl sulfoxide. 0.6 ml of this solution was added to 60 nil of a PDA medium (potato dextrose agar medium) at about 60 degrees C., which was mixed thoroughly in a 100-ml conical flask, and poured into a dish, where it was solidified, thereby obtaining a plate medium containing the inventive compound at 50 mg/L and 5 mg/L. On the other hand, a subject microorganism previously cultured on a plate medium was cut out using a cork borer whose diameter was 4 mm, and inoculated to the test compound-containing plate medium described above. […] The growth degree of the microorganism on the test compound-containing plate medium thus observed was compared with the growth degree of the microorganism in the untreated group, and % mycelial growth inhibition was calculated by the following equation. R=100(dc−dt)/dc wherein R=% mycelial extension inhibition, dc=flora diameter in untreated plate, dt=flora diameter in treated plate. The results obtained as described above were evaluated as one of the 5 grades according to the following criteria. […] Wheat eye spot (Pseudocercoporella herpotrichoides) P.h

[2] = system: Fusarium graminearum; assay: microbe, parasite or virus in culture; settings: Fusarium graminearum
[3] = system: Pyricularia oryzae; assay: microbe, parasite or virus in culture; settings: Pyricularia oryzae
[4] = system: Alternaria alternata; assay: Plate medium fungicidal assay, Alternaria blotch A.m (Experimental Example 5); settings: Alternaria alternata
Procedure: as §1, with “Alternaria blotch (Alternaria alternata) A.m” for “Wheat eye spot (Pseudocercoporella herpotrichoides) P.h”

[5] = system: Sclerotinia sclerotiorum; assay: Plate medium fungicidal assay, Sclerotinia rot S.s (Experimental Example 5); settings: Sclerotinia sclerotiorum
Procedure: as §1, with “Sclerotinia rot (Sclerotinia sclerotiorum) S.s” for “Wheat eye spot (Pseudocercoporella herpotrichoides) P.h”

[6] = system: Botritis cinerea; assay: Plate medium fungicidal assay, gray mold B.c (Experimental Example 5)
Procedure: as §1, with “Gray mold (Botritis cinerea) B.c” for “Wheat eye spot (Pseudocercoporella herpotrichoides) P.h”

[7] = system: Rhynchosporium secalis; assay: Plate medium fungicidal assay, barley leaf blotch R.sec (Experimental Example 5); settings: Rhynchosporium secalis
Procedure: as §1, with “Barley leaf blotch (Rhynchosporium secalis) R.sec” for “Wheat eye spot (Pseudocercoporella herpotrichoides) P.h”

[8] = plate medium containing compound at 5 mg/L, read-out: Growth inhibition grade, P.h
[9] = plate medium containing compound at 50 mg/L, read-out: Growth inhibition grade, P.h
[10] = read-out: Growth inhibition grade, F.g
[11] = read-out: growth inhibition grade F.g
[12] = read-out: Growth inhibition grade, P.o
[13] = read-out: growth inhibition grade P.o
[14] = plate medium containing compound at 5 mg/L, read-out: Growth inhibition grade, A.m
[15] = plate medium containing compound at 50 mg/L, read-out: Growth inhibition grade, A.m
[16] = plate medium containing compound at 5 mg/L, read-out: Growth inhibition grade, S.s
[17] = plate medium containing compound at 50 mg/L, read-out: Growth inhibition grade, S.s
[18] = plate medium containing compound at 5 mg/L, read-out: Growth inhibition grade, B.c
[19] = plate medium containing compound at 50 mg/L, read-out: Growth inhibition grade, B.c
[20] = plate medium containing compound at 5 mg/L, read-out: Growth inhibition grade, R.sec
[21] = plate medium containing compound at 50 mg/L, read-out: Growth inhibition grade, R.sec

Structure (SMILES)	inhibition at 5 µg/mL [1, 8] [%]	inhibition at 50 µg/mL [1, 9] [%]	inhibition at 5 µg/mL [2, 10] [%]	inhibition at 50 µg/mL [2, 10] [%]	inhibition at 5 µg/mL [3, 12] [%]	inhibition at 50 µg/mL [3, 12] [%]	inhibition at 5 µg/mL [4, 14] [%]	inhibition at 50 µg/mL [4, 15] [%]	inhibition at 5 µg/mL [5, 16] [%]	inhibition at 50 µg/mL [5, 17] [%]	inhibition at 5 µg/mL [6, 18] [%]	inhibition at 50 µg/mL [6, 19] [%]	inhibition at 5 µg/mL [7, 20] [%]	inhibition at 50 µg/mL [7, 21] [%]	other results
C[C@]1(CCl)CC[C@@H](Cc2ccc(Cl)cc2)[C@]1(O)Cn1cncn1 (racemic) [Compound I-1, (1RS,2SR,5SR)-5-(4-chlorobenzyl)-2-chloromethyl-2-methyl-1-(1H-1,2,4-triazol-1-ylmethyl)cyclopentanol]	> 80	> 80	> 80	> 80	> 80	> 80	> 80	> 80	> 80	> 80	> 80	> 80	> 80	> 80	inhibition at 5 µg/mL ([1]; plate medium, 5 mg/L, read-out: growth inhibition grade P.h): > 80%; inhibition at 50 µg/mL ([1]; plate medium, 50 mg/L, read-out: growth inhibition grade P.h): > 80%; inhibition at 5 µg/mL [2, 11]: > 80%; inhibition at 50 µg/mL [2, 11]: > 80%; inhibition at 5 µg/mL [3, 13]: > 80%; inhibition at 50 µg/mL [3, 13]: > 80%; inhibition at 5 µg/mL ([4]; plate medium, 5 mg/L, read-out: growth inhibition grade A.m): > 80%; inhibition at 50 µg/mL ([4]; plate medium, 50 mg/L, read-out: growth inhibition grade A.m): > 80%; inhibition at 5 µg/mL ([5]; plate medium, 5 mg/L, read-out: growth inhibition grade S.s): > 80%; inhibition at 50 µg/mL ([5]; plate medium, 50 mg/L, read-out: growth inhibition grade S.s): > 80%; inhibition at 5 µg/mL ([6]; plate medium, 5 mg/L, read-out: growth inhibition grade B.c): > 80%; inhibition at 50 µg/mL ([6]; plate medium, 50 mg/L, read-out: growth inhibition grade B.c): > 80%; inhibition at 5 µg/mL ([7]; plate medium, 5 mg/L, read-out: growth inhibition grade R.sec): > 80%; inhibition at 50 µg/mL ([7]; plate medium, 50 mg/L, read-out: growth inhibition grade R.sec): > 80%
CC(Cl)=C[C@@]1(C)CC[C@@H](Cc2ccc(Cl)cc2)[C@]1(O)Cn1cncn1 (racemic) [Compound I-15, (1RS,2RS,5SR)-5-(4-chlorobenzyl)-2-(2-chloropropenyl)-2-methyl-1-(1H-1,2,4-triazol-1-ylmethyl)cyclopentanol]	> 80	> 80	> 80	> 80	> 80	> 80	> 80	> 80	> 80	> 80	> 80	> 80	> 80	> 80	
C[C@]1(CBr)CC[C@@H](Cc2ccc(Cl)cc2)[C@]1(O)Cn1cncn1 (racemic) [Compound I-25, (1RS,2SR,5SR)-2-bromomethyl-5-(4-chlorobenzyl)-2-methyl-1-(1H-1,2,4-triazol-1-ylmethyl)cyclopentanol]	40 to 60	> 80	> 80	> 80	> 80	> 80	60 to 80	> 80	> 80	> 80	> 80	> 80	> 80	> 80	
CC[C@]1(CCl)CC[C@@H](Cc2ccc(Cl)cc2)[C@]1(O)Cn1cncn1 (racemic) [Compound I-36, (1RS,2SR,5SR)-5-(4-chlorobenzyl)-2-chloromethyl-2-ethyl-1-(1H-1,2,4-triazol-1-ylmethyl)cyclopentanol]	> 80	> 80	> 80	> 80	> 80	> 80	> 80	> 80	> 80	> 80	60 to 80	> 80	> 80	> 80	
O[C@]1(Cn2cncn2)[C@H](Cc2ccc(Cl)cc2)CC[C@@H]1C(F)(F)F (racemic) [Compound I-65, (1RS,2SR,5SR)-5-(4-chlorobenzyl)-2-trifluoromethyl-1-(1H-1,2,4-triazol-1-ylmethyl)cyclopentanol]	40 to 60	> 80	60 to 80	> 80	40 to 60	> 80	40 to 60	> 80	40 to 60	> 80	60 to 80	> 80	40 to 60	> 80	
